# In the supplement of paper PMC10307832:
# Columns and labels:
# Assay in all cases: relative viability (nuclei count vs DMSO), 5 days (fraction); higher = more cells survive
# [1] = compound: C1=CC2=C(C=C(C(=C2N=C1)O)N=NC3=CC4=C(C=C3)C=C(C=C4)S(=O)(=O)O)S(=O)(=O)O + CC(C)C[C@H](NC(=O)[C@H](Cc1ccccc1)NC(=O)c1cnccn1)B(O)O [Bortezomib] (partner 0.002 µM)
# Procedure, shortened: (§1)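 Relative viability is defined as nuclei in treated wells over nuclei in vehicle wells. Duplicate plates were run and medians reported. Lung cancer cell lines in 1536-well plates were dosed by pin tool one day after seeding, with one drug or with a fixed anchor-drug dose plus five library-drug doses (not always all listed) in √10 steps, and nuclei were counted after 5 days.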
# [2] = compound: C1=CC2=C(C=C(C(=C2N=C1)O)N=NC3=CC4=C(C=C3)C=C(C=C4)S(=O)(=O)O)S(=O)(=O)O + CC1(C)CCC(c2ccc(Cl)cc2)=C(CN2CCN(c3ccc(C(=O)NS(=O)(=O)c4ccc(N[C@H](CCN5CCOCC5)CSc5ccccc5)c(S(=O)(=O)C(F)(F)F)c4)cc3)CC2)C1 [Navitoclax] (partner 0.5 µM)
# Procedure, shortened: as §1
# [3] = compound: C1=CC2=C(C=C(C(=C2N=C1)O)N=NC3=CC4=C(C=C3)C=C(C=C4)S(=O)(=O)O)S(=O)(=O)O + Nc1nc2[nH]cc(CCc3ccc(C(=O)N[C@@H](CCC(=O)O)C(=O)O)cc3)c2c(=O)[nH]1 [Pemetrexed] (partner 0.2 µM)
# Procedure, shortened: as §1
# AT-7519 + Phenformin = compound: O=C(NC1CCNCC1)c1n[nH]cc1NC(=O)c1c(Cl)cccc1Cl [AT-7519] + N=C(N)NC(=N)NCCc1ccccc1 [Phenformin] (partner 250 µM)
# Procedure, shortened: as §1
Cell Line,relative viability ([1]; first compound 0.08 µM),relative viability ([1]; first compound 0.253 µM),relative viability ([1]; first compound 0.8 µM),relative viability ([1]; first compound 2.53 µM),relative viability ([1]; first compound 8 µM),relative viability ([2]; first compound 0.253 µM),relative viability ([2]; first compound 2.53 µM),relative viability ([2]; first compound 8 µM),relative viability ([3]; first compound 0.08 µM),relative viability ([3]; first compound 0.253 µM),relative viability ([3]; first compound 0.8 µM),relative viability ([3]; first compound 2.53 µM),relative viability ([3]; first compound 8 µM),relative viability (AT-7519 + Phenformin; first compound 0.01 µM),relative viability (AT-7519 + Phenformin; first compound 0.03162 µM),relative viability (AT-7519 + Phenformin; first compound 0.3162 µM),relative viability (AT-7519 + Phenformin; first compound 1 µM),relative viability ([2]; first compound 0.08 µM),relative viability ([2]; first compound 0.8 µM)
LCLC-97TM1,0.815,0.492,0.525,0.753,0.395,0.224,0.509,0.41,0.173,0.18,0.157,0.156,0.161,0.476,0.456,0.42,0.289,,
LOU-NH91,0.504,0.477,0.51,0.498,0.496,0.672,0.723,0.687,0.365,0.38,0.393,0.361,0.36,0.674,0.743,0.677,0.631,0.72,0.704
LU99A,1.27,1.13,1.04,0.986,1.29,0.913,0.813,0.742,0.161,0.401,0.183,0.181,0.19,0.826,0.769,0.802,0.724,0.815,0.8
LXF-289,0.95,0.96,0.986,0.986,0.945,0.928,0.998,0.919,0.919,0.869,0.841,0.962,0.885,0.574,0.524,0.489,0.53,1,0.894
NCI-H23,1.06,0.82,1.08,1.06,0.897,0.742,0.89,1.01,0.681,0.648,0.669,0.579,0.693,0.632,0.794,0.779,0.52,1.09,0.936
NCI-H322M,1.26,1.11,1.22,1.32,1.28,1.22,1.16,1.22,0.663,0.663,0.608,0.587,0.669,0.796,0.784,0.612,0.448,1.35,1.19
NCI-H441,0.576,0.385,,0.484,0.718,0.573,0.479,0.431,0.251,0.27,0.246,0.26,0.297,0.847,0.955,0.775,0.515,0.706,
NCI-H460,1.39,1.04,0.99,1.19,1.09,1.09,1.11,1.04,0.0636,0.0585,0.066,0.0648,0.0698,0.636,0.31,0.0379,0.0177,1.2,1.1
NCI-H520,0.777,0.598,0.619,0.551,0.459,0.99,1.07,1.13,0.696,0.706,0.637,0.715,0.692,0.66,0.669,0.422,0.257,1.17,1.07
NCI-H596,1.43,1.16,0.974,1.02,0.769,0.973,0.964,1.01,0.557,0.452,0.52,0.493,0.486,0.732,0.653,0.642,0.714,0.946,1.06
NCI-H647,1.2,1.08,0.97,0.953,1.19,0.955,1.24,1.23,0.174,0.189,0.182,0.183,0.168,0.619,0.529,0.335,0.281,1.19,0.938
NCI-H838,0.753,0.909,0.674,0.633,0.764,1.23,1.09,1.2,0.264,0.251,0.235,0.234,0.246,0.534,0.552,0.247,0.0953,1.24,1.17
NCI-H1355,1.22,1.22,1.15,1.23,1.29,0.944,1.03,0.96,1.13,1.05,1.02,1.1,0.872,0.455,0.461,0.371,0.458,1.03,0.913
NCI-H1437,0.578,0.509,0.483,0.414,0.4,1.08,1.16,1.08,0.299,0.326,0.334,0.265,0.308,0.322,0.328,0.292,0.194,1.08,1.11
NCI-H1650,0.196,0.212,0.22,0.193,0.202,1.27,1.2,1.12,0.433,0.346,0.368,0.389,0.4,0.466,0.427,0.292,0.15,1.36,1.28
NCI-H1651,0.942,0.903,0.894,0.963,0.755,0.932,1.15,0.991,0.678,0.534,0.601,0.609,0.54,0.298,0.344,0.36,0.325,1.04,1.14
NCI-H1666,0.874,0.658,0.799,0.859,0.658,0.91,1.14,0.842,0.824,0.85,0.827,0.891,0.892,0.59,0.568,0.538,0.402,0.87,0.962
